Assay results from the NIST ThermoML archive (doi:10.1021/je400205g).
Numbers after ± are expanded uncertainties.

Settings: Transpiration method

SMILES	vapor or sublimation pressure (309.15 K, Liquid) [kPa]	vapor or sublimation pressure (263.15 K, Liquid) [kPa]	vapor or sublimation pressure (278.15 K, Liquid) [kPa]	vapor or sublimation pressure (293.15 K, Liquid) [kPa]	vapor or sublimation pressure (308.15 K, Liquid) [kPa]	further results
O=C(O)C(F)(F)OC(F)(F)C(F)(F)OC(F)(F)F	–	0.00451 ± 0.0011	0.02238 ± 0.0014	0.09288 ± 0.0041	0.3168 ± 0.013	–
O=C(O)C(F)(F)C(F)(F)C(F)(F)C(F)(F)C(F)(F)F [2,2,3,3,4,4,5,5,6,6,6-undecafluorohexanoic acid]	–	–	–	0.044 ± 0.0022	0.1656 ± 0.0068	vapor or sublimation pressure (263.15 K, Crystal): 0.00126 ± 0.001 kPa; vapor or sublimation pressure (270.15 K, Crystal): 0.00294 ± 0.001 kPa; vapor or sublimation pressure (278.15 K, Crystal): 0.00791 ± 0.0011 kPa; vapor or sublimation pressure (283.15 K, Crystal): 0.0134 ± 0.0012 kPa; vapor or sublimation pressure (285.15 K, Crystal): 0.01726 ± 0.0014 kPa; vapor or sublimation pressure (290.15 K, Crystal): 0.03551 ± 0.0018 kPa; vapor or sublimation pressure (300.15 K, Liquid): 0.08434 ± 0.0037 kPa
CCOC(=O)C(F)(F)C(F)(F)C(F)(F)C(F)(F)C(F)(F)C(F)(F)C(F)(F)F [ethyl perfluorooctanoate]	–	0.00516 ± 0.0011	0.02313 ± 0.0014	0.08988 ± 0.0038	0.2649 ± 0.011	–

The next lines start with results.

vapor or sublimation pressure (309.15 K, Liquid) [kPa]	SMILES	vapor or sublimation pressure (263.15 K, Liquid) [kPa]	vapor or sublimation pressure (278.15 K, Liquid) [kPa]	vapor or sublimation pressure (293.15 K, Liquid) [kPa]	vapor or sublimation pressure (308.15 K, Liquid) [kPa]	further results
0.978 ± 0.039	C=CC(F)(F)C(F)(F)C(F)(F)C(F)(F)C(F)(F)C(F)(F)C(F)(F)C(F)(F)F	–	–	–	–	vapor or sublimation pressure (254.15 K, Liquid): 0.01269 ± 0.00078 kPa; vapor or sublimation pressure (272.45 K, Liquid): 0.06823 ± 0.003 kPa; vapor or sublimation pressure (290.75 K, Liquid): 0.2843 ± 0.012 kPa
0.217 ± 0.0086	OCCCC(F)(F)C(F)(F)C(F)(F)C(F)(F)F [4,4,5,5,6,6,7,7,7-nonafluoro-1-heptanol]	–	–	0.05717 ± 0.0027	–	vapor or sublimation pressure (255.65 K, Liquid): 0.00087 ± 8e-05 kPa; vapor or sublimation pressure (273.15 K, Liquid): 0.00765 ± 0.00033 kPa; vapor or sublimation pressure (282.45 K, Liquid): 0.02121 ± 0.00096 kPa
